Laboratory results as given in article PMC4076210, “Discovery of Novel AKT Inhibitors with Enhanced Anti-Tumor Effects in Combination with the MEK Inhibitor” (PLoS ONE, 2014).

Test system: solid tumor cell lines
Experiment: 3-day proliferation assay (CellTiter-Glo)
Format: cell-based, human
Details: for IC50: Homo sapiens
Procedure: Various tumor cell lines were obtained from different sources including; the American Type Cell Culture Collection, the Developmental Therapeutics Program, the National Cancer Institute, the German Resource Center for Biological Material and the European Collection of Animal Cell Cultures. Cell lines were typically grown in […] containing 10% FBS. Some cell lines were grown in media specified by the vendor. A 3-day proliferation assay using CellTiter-Glo (CTG, Promega) was performed to measure the growth inhibition by the compounds at 0–30 µM. Cell growth was determined relative to untreated (DMSO) controls. EC50's were calculated from inhibition curves using a 4- or 6-parameter fitting algorithm in the Assay Client application.

With Cn1ncc(Cl)c1-c1cc(C(=O)N[C@H](CN)Cc2cccc(F)c2)sc1Cl [GSK2110183] the “solid tumor cell lines with EC50<1 µM” value (178 cell lines, 3 days, CTG) was 21%, the IC50 (22Rv1, 22Rv1, Prostate) was 0.706 µM and the IC50 (647-V, 647V, Bladder) was 11.5 µM. The IC50 (786-0, 786-O, Kidney) was 1.64 µM, the IC50 (A204, A204, Sarcoma) was 2.14 µM and the IC50 (A549, A549, Lung) was 3.28 µM. For the same compound, the IC50 (A673, A673, Sarcoma) was 19.9 µM, the IC50 (A2780, A2780, Ovary) was 4.03 µM and the IC50 (A-375, A375, Skin) was 8.68 µM. The IC50 (A-427, A427, Lung) was 19 µM, the IC50 (ACHN, Kidney) was 3.71 µM and the IC50 (AGS, Stomach) was 0.964 µM. For the same compound, the IC50 (BE(2)-C, BE2C, Neuroblastoma) was 1.47 µM, the IC50 (BFTC-905, BFTC905, Bladder) was 2.64 µM and the IC50 (BT-20, BT20, Breast) was 0.311 µM. For the same compound, the IC50 (BXPC-3, BXPC3, Pancreas) was greater than 30 µM, the IC50 (C3A, Liver) was 1.75 µM and the IC50 (C32TG, Skin) was 0.975 µM. The IC50 (C-33-A, C-33A, Cervix) was 0.541 µM, the IC50 (C-41, Cervix) was 15.2 µM and the IC50 (CAL-27, CAL27, Head & Neck) was 8.01 µM. For the same compound, the IC50 (CAL-62, CAL62, Thyroid) was 10.4 µM, the IC50 (CCF-STTG1, CCFSTTG1, Brain) was 0.673 µM and the IC50 (CGTH-W-1, CGTHW1, Thyroid) was 3.07 µM. It also gave an IC50 (CHL-1, CHL1, Skin) of 3.79 µM, an IC50 (CHP-212, CHP212, Neuroblastoma) of 2.32 µM and an IC50 (COLO 205, COLO205, Colon) of 7.58 µM. It also gave an IC50 (COLO 320DM, COLO320DM, Colon) of 1.34 µM, an IC50 (COLO 704, COLO704, Ovary) of 0.339 µM and an IC50 (COR-L23, CORL23, Lung) of 3.92 µM. The IC50 (Calu-3, CALU3, Lung) was 3.31 µM, the IC50 (Calu-6, CALU6, Lung) was 5.49 µM and the IC50 (Caov-3, CAOV3, Ovary) was 6.18 µM. The IC50 (Capan-2, Capan2, Pancreas) was 9.38 µM, the IC50 (DBTRG-05MG, DBTRG05MG, Brain) was 4.43 µM and the IC50 (DKMG, Brain) was 3.68 µM. For the same compound, the IC50 (DLD-1, DLD1, Colon) was 8.45 µM, the IC50 (DU-145, DU145, Prostate) was 6.54 µM and the IC50 (DU-4475, DU4475, Breast) was 2.27 µM. The IC50 (DoTc2-4510, DoTc24510, Cervix) was 2.25 µM, the IC50 (EFM-19, EFM19, Breast) was 0.117 µM and the IC50 (EKVX, Lung) was 5.54 µM. For the same compound, the IC50 (ES2, Ovary) was 4.52 µM, the IC50 (FaDu, Head & Neck) was 10.5 µM and the IC50 (G-401, G401, Head & Neck) was 1.12 µM. For the same compound, the IC50 (GCT, Sarcoma) was 5.89 µM, the IC50 (H4, Brain) was 2.99 µM and the IC50 (HCC70, HCC70, Breast) was 0.081 µM. The IC50 (HCC1954, HCC1954, Breast) was 0.32 µM, the IC50 (HCC 2998, HCC2998, Colon) was 2.2 µM and the IC50 (HCT-116, HCT116, Colon) was 5.64 µM. It also gave an IC50 (HMCB, Skin) of 4.46 µM, an IC50 (HN5, Head & Neck) of 2.96 µM and an IC50 (HOS, Sarcoma) of 2.46 µM. It also gave an IC50 (HPAF-II, HPAFII, Pancreas) of 7.49 µM, an IC50 (HT3, Cervix) of 2.66 µM and an IC50 (HT-29, HT29, Colon) of 2.02 µM. For the same compound, the IC50 (HT-1080, HT1080, Sarcoma) was 7.92 µM, the IC50 (HUVEC, Normal Endothelial) was 3 µM and the IC50 (HeLa, Cervix) was 6.33 µM. The IC50 (Hep3B, Liver) was 0.399 µM, the IC50 (Hs746T, Stomach) was 2.07 µM and the IC50 (IGROV-1, IGROV1, Ovary) was 0.054 µM. It also gave an IC50 (J82, Bladder) of 2.07 µM, an IC50 (KATO III, KATOIII, Stomach) of 0.571 µM and an IC50 (KHOS-240S, KHOS240S, Sarcoma) of 8.15 µM. The IC50 (KM12, KM12, Colon) was 6.49 µM, the IC50 (KPL-1, KPL1, Breast) was 3.83 µM and the IC50 (KYSE-30, KYSE30, Oesophagus) was 3.44 µM. It also gave an IC50 (LNCaP, Prostate) of 0.076 µM, an IC50 (LS174T, Colon) of 3.47 µM and an IC50 (LS-1034, LS1034, Colon) of 3.17 µM. The IC50 (M14, Skin) was 4.88 µM, the IC50 (MC-IXC, MCIXC, Neuroblastoma) was 1.05 µM and the IC50 (MCF7, MCF7, Breast) was 0.473 µM. The IC50 (MCF-10A, MCF10A, Normal Breast) was 0.644 µM, the IC50 (MDA-MB-175-VII, MDAMB175-VII, Breast) was 0.189 µM and the IC50 (MDA-MB-231, MDAMB231, Breast) was 13.2 µM. For the same compound, the IC50 (MDA-MB-453, MDAMB453, Breast) was 1.17 µM, the IC50 (MDA-MB-468, MDAMB468, Breast) was 0.995 µM and the IC50 (MES-SA, MESSA, Sarcoma) was 0.66 µM. For the same compound, the IC50 (MIA PaCa-2, MiaPaCa, Pancreas) was 1.71 µM, the IC50 (NCI-H69, NCIH69, Lung) was 1.39 µM and the IC50 (NCI-H82, NCIH82, Lung) was 29.3 µM. For the same compound, the IC50 (NCI-H146, NCIH146, Lung) was 11.3 µM, the IC50 (NCI-H157, NCIH157, Lung) was 2.03 µM and the IC50 (NCI-H187, NCIH187, Lung) was 0.263 µM. The IC50 (NCI-H209, NCI-H209, Lung) was 4.43 µM and the IC50 (NCI-H226, NCIH226, Lung) was 6.14 µM.
